In US20240336565A1, “SOLID FORMS OF OSANETANT” (Acer Therapeutics, Inc., priority 2021, published 2024):
Blank lines part the entries; values can stand above or below the compound they belong to.

Legend:
Format in all cases: physicochemical
[1] = Long term stability: oxidation (6% H2O2) at 60° C.; settings: for Control Purity: 6% H2O2 60° C. study; for T = 1 month Purity / T = 1 day Purity / T = 2 day Purity / T = 4 day Purity / T = 7 day Purity / T = 14 day Purity: 6% H2O2, 60° C., dark; for T = 2 day Purity: 2 days; for T = 4 day Purity: 4 days; for T = 7 day Purity: 7 days; for T = 14 day Purity: 14 days
Description: (§1) Osanetant p-toluenesulfonic acid Form 1 and osanetant benzenesulfonic acid Form 1 were tested for long-term stability across a number of different conditions, as detailed below.
(§2) Oxidation at 60° C.—Osanetant p-toluenesulfonic acid Form 1 and osanetant benzenesulfonic acid Form 1 were prepared at an osanetant content 10 times the normal working concentration then added to HPLC vials containing 6% H2O2 and stored in a darkened oven at 60° C. Samples were diluted to 2 mg/mL for analysis and were taken after T=1, 2, 4, 7, and 14 days storage. […] The purity of the resulting material is described in Table 47: […]

[2] = Long term stability: thermal stability of solids at 60° C.; settings: for T = 1 month Purity / T = 1 day Purity / T = 2 day Purity / T = 4 day Purity / T = 7 day Purity / T = 14 day Purity: solid at 60° C., dark; for T = 2 day Purity: 2 days; for T = 4 day Purity: 4 days; for T = 7 day Purity: 7 days; for T = 14 day Purity: 14 days; for Control Purity: solid, Purity = 100-total other substances
Description: as §1
Thermal stability of solids at 60° C.—Osanetant p-toluenesulfonic acid Form 1 and osanetant benzenesulfonic acid Form 1 were stored in a darkened oven at 60° C. in glass vials. Samples were taken after T=1, 2, 4, 7, and 14 days storage. […] The purity of the resulting material is described in Table 41: […]

[3] = Long term stability: base (2M NaOH) at 60° C.; settings: for Control Purity: 2M NaOH 60° C. study; for T = 4 day Purity: 4 days; for T = 7 day Purity: 7 days; for T = 14 day Purity: 14 days
Description: as §1
as §2, with “Base” for “Oxidation”, “2M NaOH” for “6% H2O2”, “45:” for “47:”

[4] = Long term stability: oxidation (6% H2O2) at ambient temperature; settings: for T = 1 month Purity / T = 1 day Purity / T = 2 day Purity / T = 4 day Purity / T = 7 day Purity / T = 14 day Purity: 6% H2O2, ambient, dark; for T = 2 day Purity: 2 days; for T = 4 day Purity: 4 days; for T = 7 day Purity: 7 days; for T = 14 day Purity: 14 days; for Control Purity: 6% H2O2 ambient study
Description: as §1
as §2, with “Ambient Temperature-Osanetant” for “60° C.—Osanetant”, “the dark” for “a darkened oven”, “ambient laboratory conditions.” for “60° C.”, “46:” for “47:”

[5] = Long term stability: base (2M NaOH) at ambient temperature; settings: for Control Purity: 2M NaOH ambient study; for T = 1 month Purity / T = 1 day Purity / T = 2 day Purity / T = 4 day Purity / T = 7 day Purity / T = 14 day Purity: 2M NaOH, ambient, dark; for T = 2 day Purity: 2 days; for T = 4 day Purity: 4 days; for T = 7 day Purity: 7 days; for T = 14 day Purity: 14 days
Description: as §1
as §2, with “Base” for “Oxidation”, “Ambient Temperature—Osanetant” for “60° C.—Osanetant”, “2M NaOH” for “6% H2O2”, “the dark” for “a darkened oven”, “ambient laboratory conditions.” for “60° C.”, “44:” for “47:”

[6] = Long term stability: acid stability (2M HCl) at 60° C.; settings: for Control Purity: 2M HCl 60° C. study; for T = 1 day Purity / T = 2 day Purity / T = 4 day Purity: 2M HCl, 60° C., dark; for T = 2 day Purity: 2 days; for T = 4 day Purity: 4 days
Description: as §1
Acid Stability at 60° C.—Osanetant p-toluenesulfonic acid Form 1 and osanetant benzenesulfonic acid Form 1 were prepared at an osanetant content 10 times the normal working concentration then added to HPLC vials containing 2M HCl and stored in a darkened oven at 60° C. Samples were diluted to 2 mg/mL for analysis and were taken after T=1, 2, and 4 days storage.

[7] = Long term stability: acid stability (2M HCl) at ambient temperature; settings: for Control Purity: 2M HCl ambient study; for T = 1 month Purity / T = 1 day Purity / T = 2 day Purity / T = 4 day Purity / T = 7 day Purity / T = 14 day Purity: 2M HCl, ambient, dark; for T = 2 day Purity: 2 days; for T = 4 day Purity: 4 days; for T = 7 day Purity: 7 days; for T = 14 day Purity: 14 days
Description: as §1
as §2, with “Acid Stability” for “Oxidation”, “Ambient Temperature-Osanetant” for “60° C.—Osanetant”, “2M HCl” for “6% H2O2”, “the dark” for “a darkened oven”, “ambient laboratory conditions.” for “60° C.”, “42:” for “47:”

- Control Purity [1]: 99.9
- T = 1 month Purity [1]: 77.8
- T = 1 day Purity [1]: 91.9
- T = 2 day Purity [1]: 97.2
- T = 4 day Purity [1]: 94.8
- T = 7 day Purity [1]: 93.1
- T = 14 day Purity [1]: 76.6
- T = 1 month Purity [2]: 100.0
- T = 1 day Purity [2]: 99.9
- T = 2 day Purity [2]: 99.9
- T = 4 day Purity [2]: 99.9
- T = 7 day Purity [2]: 99.9
- T = 14 day Purity [2]: 100.0
- Control Purity [2]: 99.9
- Control Purity [3]: 99.9
- T = 1 month Purity ([3]; 2M NaOH, 60° C., dark): 95.8
- T = 1 day Purity ([3]; 2M NaOH, 60° C., dark): 99.7
- T = 4 day Purity ([3]; 2M NaOH, 60° C., dark): 98.5
- T = 7 day Purity ([3]; 2M NaOH, 60° C., dark): 97.3
- T = 14 day Purity ([3]; 2M NaOH, 60° C., dark): 95.5
- T = 1 month Purity [4]: 99.5
- T = 1 day Purity [4]: 99.9
- T = 2 day Purity [4]: 99.9
- T = 4 day Purity [4]: 99.9
- T = 7 day Purity [4]: 99.8
- T = 14 day Purity [4]: 99.8
- Control Purity [4]: 99.9
- Control Purity [5]: 99.9
- T = 1 month Purity [5]: 99.9
- T = 1 day Purity [5]: 99.9
- T = 2 day Purity [5]: 99.9
- T = 4 day Purity [5]: 99.9
- T = 7 day Purity [5]: 99.9
- T = 14 day Purity [5]: 100.0
- Control Purity [6]: 99.9
- T = 1 day Purity [6]: 94.7
- T = 2 day Purity [6]: 89.2
- T = 4 day Purity [6]: 81.0
- Control Purity [7]: 99.9
- T = 1 month Purity [7]: 98.5
- T = 1 day Purity [7]: 100.0
- T = 2 day Purity [7]: 100.0
- T = 4 day Purity [7]: 99.9
- T = 7 day Purity [7]: 99.5
- T = 14 day Purity [7]: 99.3
SMILES: CC(=O)N(C)C1(c2ccccc2)CCN(CCCC2(c3ccc(Cl)c(Cl)c3)CCCN(C(=O)c3ccccc3)C2)CC1.O=S(=O)(O)c1ccccc1 (stereo not shown) [benzenesulfonic acid Form 1]

SMILES: CC(=O)N(C)C1(c2ccccc2)CCN(CCC[C@]2(c3ccc(Cl)c(Cl)c3)CCCN(C(=O)c3ccccc3)C2)CC1.Cc1ccc(S(=O)(=O)O)cc1 [p-toluenesulfonic acid Form 1]
- Control Purity [1]: 99.8
- T = 1 month Purity [1]: 65.5
- T = 1 day Purity [1]: 99.3
- T = 2 day Purity [1]: 96.6
- T = 4 day Purity [1]: 97.4
- T = 7 day Purity [1]: 95.2
- T = 14 day Purity [1]: 92.4
- T = 1 month Purity [2]: 99.5
- T = 1 day Purity [2]: 99.7
- T = 2 day Purity [2]: 99.7
- T = 4 day Purity [2]: 99.7
- T = 7 day Purity [2]: 99.6
- T = 14 day Purity [2]: 99.7
- Control Purity [2]: 99.8
- Control Purity [3]: 99.8
- T = 1 month Purity ([3]; 2M NaOH, 60° C., dark): 94.0
- T = 1 day Purity ([3]; 2M NaOH, 60° C., dark): 99.6
- T = 2 day Purity ([3]; 2M NaOH, 60° C., dark, 2 days): 99.2
- T = 4 day Purity ([3]; 2M NaOH, 60° C., dark): 98.4
- T = 7 day Purity ([3]; 2M NaOH, 60° C., dark): 97.1
- T = 14 day Purity ([3]; 2M NaOH, 60° C., dark): 94.7
- T = 1 month Purity [4]: 99.7
- T = 1 day Purity [4]: 99.8
- T = 2 day Purity [4]: 99.8
- T = 4 day Purity [4]: 99.8
- T = 7 day Purity [4]: 99.8
- T = 14 day Purity [4]: 99.8
- Control Purity [4]: 99.8
- Control Purity [5]: 99.8
- T = 1 month Purity [5]: 99.7
- T = 1 day Purity [5]: 99.8
- T = 2 day Purity [5]: 99.8
- T = 4 day Purity [5]: 99.8
- T = 7 day Purity [5]: 99.8
- T = 14 day Purity [5]: 99.8
- Control Purity [6]: 99.8
- T = 1 day Purity [6]: 94.8
- T = 2 day Purity [6]: 89.0
- T = 4 day Purity [6]: 80.5
- Control Purity [7]: 99.8
- T = 1 month Purity [7]: 98.0
- T = 1 day Purity [7]: 99.8
- T = 2 day Purity [7]: 99.8
- T = 4 day Purity [7]: 99.9
- T = 7 day Purity [7]: 99.6
- T = 14 day Purity [7]: 99.0
